{"source": "the NIST ThermoML archive (doi:10.1021/acs.jced.7b00297)", "key": {"[1]": {"experiment": "mn = molality of the nth substance listed, in mol/kg", "conditions": "84.5 kPa, Liquid; for speed of sound: Single path-length method; for mass density: Vibrating tube method"}, "[2]": {"conditions": "298.15 K; 101.33 kPa; Liquid; Vibrating tube method"}}, "note": "± gives the expanded uncertainty stated by the source."}
{"compound": "CCCCn1cc[n+](C)c1.[Cl-]", "note": "[1-butyl-3-methylimidazolium chloride] + O", "values": [{"measurement": "speed of sound", "setting": "[1]; 288.15 K, m1 = 0.0344", "value": "1472 ± 1", "unit": "m/s"}, {"measurement": "speed of sound", "setting": "[1]; 288.15 K, m1 = 0.0526", "value": "1474.7 ± 1", "unit": "m/s"}, {"measurement": "speed of sound", "setting": "[1]; 288.15 K, m1 = 0.0926", "value": "1480.8 ± 1", "unit": "m/s"}, {"measurement": "speed of sound", "setting": "[1]; 288.15 K, m1 = 0.1181", "value": "1485 ± 1", "unit": "m/s"}, {"measurement": "speed of sound", "setting": "[1]; 288.15 K, m1 = 0.1806", "value": "1493.8 ± 1", "unit": "m/s"}, {"measurement": "speed of sound", "setting": "[1]; 288.15 K, m1 = 0.2371", "value": "1502.2 ± 1", "unit": "m/s"}, {"measurement": "speed of sound", "setting": "[1]; 288.15 K, m1 = 0.479", "value": "1535.7 ± 1.1", "unit": "m/s"}, {"measurement": "speed of sound", "setting": "[1]; 288.15 K, m1 = 0.7374", "value": "1568.8 ± 1.1", "unit": "m/s"}, {"measurement": "mass density", "setting": "[1]; 288.15 K, m1 = 0.0344", "value": "999.577 ± 4", "unit": "kg/m3"}, {"measurement": "mass density", "setting": "[1]; 288.15 K, m1 = 0.0526", "value": "999.828 ± 4", "unit": "kg/m3"}, {"measurement": "mass density", "setting": "[1]; 288.15 K, m1 = 0.0926", "value": "1000.37 ± 4", "unit": "kg/m3"}, {"measurement": "mass density", "setting": "[1]; 288.15 K, m1 = 0.1181", "value": "1000.72 ± 4", "unit": "kg/m3"}, {"measurement": "mass density", "setting": "[1]; 288.15 K, m1 = 0.1806", "value": "1001.56 ± 4", "unit": "kg/m3"}, {"measurement": "mass density", "setting": "[1]; 288.15 K, m1 = 0.2371", "value": "1002.33 ± 4", "unit": "kg/m3"}, {"measurement": "mass density", "setting": "[1]; 288.15 K, m1 = 0.479", "value": "1005.59 ± 4", "unit": "kg/m3"}, {"measurement": "mass density", "setting": "[1]; 288.15 K, m1 = 0.7374", "value": "1009.02 ± 4", "unit": "kg/m3"}, {"measurement": "speed of sound", "setting": "[1]; 298.15 K, m1 = 0.0344", "value": "1501.5 ± 1", "unit": "m/s"}, {"measurement": "speed of sound", "setting": "[1]; 298.15 K, m1 = 0.0526", "value": "1504 ± 1", "unit": "m/s"}, {"measurement": "speed of sound", "setting": "[1]; 298.15 K, m1 = 0.0926", "value": "1509.3 ± 1", "unit": "m/s"}, {"measurement": "speed of sound", "setting": "[1]; 298.15 K, m1 = 0.1181", "value": "1513.1 ± 1", "unit": "m/s"}, {"measurement": "speed of sound", "setting": "[1]; 298.15 K, m1 = 0.1806", "value": "1520.7 ± 1", "unit": "m/s"}, {"measurement": "speed of sound", "setting": "[1]; 298.15 K, m1 = 0.2371", "value": "1528 ± 1", "unit": "m/s"}, {"measurement": "speed of sound", "setting": "[1]; 298.15 K, m1 = 0.479", "value": "1557.1 ± 1.1", "unit": "m/s"}, {"measurement": "speed of sound", "setting": "[1]; 298.15 K, m1 = 0.7374", "value": "1586 ± 1.1", "unit": "m/s"}, {"measurement": "mass density", "setting": "[1]; 298.15 K, m1 = 0.0344", "value": "997.479 ± 4", "unit": "kg/m3"}, {"measurement": "mass density", "setting": "[1]; 298.15 K, m1 = 0.0526", "value": "997.71 ± 4", "unit": "kg/m3"}, {"measurement": "mass density", "setting": "[1]; 298.15 K, m1 = 0.0926", "value": "998.209 ± 4", "unit": "kg/m3"}, {"measurement": "mass density", "setting": "[1]; 298.15 K, m1 = 0.1181", "value": "998.524 ± 4", "unit": "kg/m3"}, {"measurement": "mass density", "setting": "[1]; 298.15 K, m1 = 0.1806", "value": "999.3 ± 4", "unit": "kg/m3"}, {"measurement": "mass density", "setting": "[1]; 298.15 K, m1 = 0.2371", "value": "999.998 ± 4", "unit": "kg/m3"}, {"measurement": "mass density", "setting": "[1]; 298.15 K, m1 = 0.479", "value": "1002.98 ± 4", "unit": "kg/m3"}, {"measurement": "mass density", "setting": "[1]; 298.15 K, m1 = 0.7374", "value": "1006.11 ± 4", "unit": "kg/m3"}, {"measurement": "speed of sound", "setting": "[1]; 308.15 K, m1 = 0.0344", "value": "1523.9 ± 1", "unit": "m/s"}, {"measurement": "speed of sound", "setting": "[1]; 308.15 K, m1 = 0.0526", "value": "1526.1 ± 1", "unit": "m/s"}, {"measurement": "speed of sound", "setting": "[1]; 308.15 K, m1 = 0.0926", "value": "1530.8 ± 1", "unit": "m/s"}, {"measurement": "speed of sound", "setting": "[1]; 308.15 K, m1 = 0.1181", "value": "1534 ± 1", "unit": "m/s"}, {"measurement": "speed of sound", "setting": "[1]; 308.15 K, m1 = 0.1806", "value": "1540.7 ± 1", "unit": "m/s"}, {"measurement": "speed of sound", "setting": "[1]; 308.15 K, m1 = 0.2371", "value": "1547.1 ± 1", "unit": "m/s"}, {"measurement": "speed of sound", "setting": "[1]; 308.15 K, m1 = 0.479", "value": "1572.5 ± 1.1", "unit": "m/s"}, {"measurement": "speed of sound", "setting": "[1]; 308.15 K, m1 = 0.7374", "value": "1597.6 ± 1.1", "unit": "m/s"}, {"measurement": "mass density", "setting": "[1]; 308.15 K, m1 = 0.0344", "value": "994.434 ± 4", "unit": "kg/m3"}, {"measurement": "mass density", "setting": "[1]; 308.15 K, m1 = 0.0526", "value": "994.648 ± 4", "unit": "kg/m3"}, {"measurement": "mass density", "setting": "[1]; 308.15 K, m1 = 0.0926", "value": "995.113 ± 4", "unit": "kg/m3"}, {"measurement": "mass density", "setting": "[1]; 308.15 K, m1 = 0.1181", "value": "995.403 ± 4", "unit": "kg/m3"}, {"measurement": "mass density", "setting": "[1]; 308.15 K, m1 = 0.1806", "value": "996.124 ± 4", "unit": "kg/m3"}, {"measurement": "mass density", "setting": "[1]; 308.15 K, m1 = 0.2371", "value": "996.773 ± 4", "unit": "kg/m3"}, {"measurement": "mass density", "setting": "[1]; 308.15 K, m1 = 0.479", "value": "999.537 ± 4", "unit": "kg/m3"}, {"measurement": "mass density", "setting": "[1]; 308.15 K, m1 = 0.7374", "value": "1002.43 ± 4", "unit": "kg/m3"}, {"measurement": "speed of sound", "setting": "[1]; 318.15 K, m1 = 0.0344", "value": "1540.1 ± 1", "unit": "m/s"}, {"measurement": "speed of sound", "setting": "[1]; 318.15 K, m1 = 0.0526", "value": "1542 ± 1", "unit": "m/s"}, {"measurement": "speed of sound", "setting": "[1]; 318.15 K, m1 = 0.0926", "value": "1546.1 ± 1", "unit": "m/s"}, {"measurement": "speed of sound", "setting": "[1]; 318.15 K, m1 = 0.1181", "value": "1548.9 ± 1", "unit": "m/s"}, {"measurement": "speed of sound", "setting": "[1]; 318.15 K, m1 = 0.1806", "value": "1554.8 ± 1", "unit": "m/s"}, {"measurement": "speed of sound", "setting": "[1]; 318.15 K, m1 = 0.2371", "value": "1560.5 ± 1", "unit": "m/s"}, {"measurement": "speed of sound", "setting": "[1]; 318.15 K, m1 = 0.479", "value": "1582.7 ± 1.1", "unit": "m/s"}, {"measurement": "speed of sound", "setting": "[1]; 318.15 K, m1 = 0.7374", "value": "1604.5 ± 1.1", "unit": "m/s"}, {"measurement": "mass density", "setting": "[1]; 318.15 K, m1 = 0.0344", "value": "990.589 ± 4", "unit": "kg/m3"}, {"measurement": "mass density", "setting": "[1]; 318.15 K, m1 = 0.0526", "value": "990.791 ± 4", "unit": "kg/m3"}, {"measurement": "mass density", "setting": "[1]; 318.15 K, m1 = 0.0926", "value": "991.228 ± 4", "unit": "kg/m3"}, {"measurement": "mass density", "setting": "[1]; 318.15 K, m1 = 0.1181", "value": "991.504 ± 4", "unit": "kg/m3"}, {"measurement": "mass density", "setting": "[1]; 318.15 K, m1 = 0.1806", "value": "992.177 ± 4", "unit": "kg/m3"}, {"measurement": "mass density", "setting": "[1]; 318.15 K, m1 = 0.2371", "value": "992.785 ± 4", "unit": "kg/m3"}, {"measurement": "mass density", "setting": "[1]; 318.15 K, m1 = 0.479", "value": "995.37 ± 4", "unit": "kg/m3"}, {"measurement": "mass density", "setting": "[1]; 318.15 K, m1 = 0.7374", "value": "998.079 ± 4", "unit": "kg/m3"}]}
{"compound": "CCCCn1cc[n+](C)c1.O=S(=O)([O-])C(F)(F)F", "note": "[1-butyl-3-methylimidazolium trifluoromethanesulfonate]", "values": [{"measurement": "mass density", "setting": "[2]", "value": "1297.84 ± 5.4", "unit": "kg/m3"}]}
{"compound": "CCCCCCn1cc[n+](C)c1.[Cl-]", "note": "[1-hexyl-3-methylimidazolium chloride]", "values": [{"measurement": "mass density", "setting": "[2]", "value": "1042.86 ± 4.3", "unit": "kg/m3"}]}
